This is an account of results in the Biogen ADME set (Fang et al. 2023).

For the series the following is noted: for aqueous solubility: pH 6.8.

Structures are written as SMILES. In brackets after ≈: the same amount, converted by molar mass.

As a reminder, the aqueous solubility is the concentration that dissolves in the medium under given conditions. High values mean much dissolved substance, low ones little dissolved substance. `COc1ccc(-c2nc(CN3CCC[C@H](O)C3)no2)cc1`: the MDR1-MDCK efflux ratio turned out to be 0.841; the intrinsic clearance, human liver microsomes was 11.5 mL/min/kg; the intrinsic clearance, rat liver microsomes amounted to 48 mL/min/kg; the aqueous solubility stood at 36.8 µg/mL (≈ 127 µM).

As for `NC(=O)c1ccc(Oc2ccc(C(=O)N3CCCCCC3)cc2)cc1`, the MDR1-MDCK efflux ratio was found to be 4.9; the intrinsic clearance, human liver microsomes was 11.4 mL/min/kg; the intrinsic clearance, rat liver microsomes was determined as 82.3 mL/min/kg; the aqueous solubility is 59.8 µg/mL (≈ 177 µM).

As to `COc1cc2c(c(OC)c1OC)CCNC(=O)C2`, the intrinsic clearance, human liver microsomes is not above 4.74 mL/min/kg; the intrinsic clearance, rat liver microsomes was not above 10.7 mL/min/kg; the aqueous solubility came to 49.6 µg/mL (≈ 198 µM).

Molecule `COc1cccc(/C=C2/N=C(c3ccccc3)NC2=O)c1OC` displayed an aqueous solubility of 0.33 µg/mL (≈ 1.07 µM).

As to `Cc1cc(N2CCCC2)nc(C2CCCN(C)C2)n1` (configuration not stated), the fraction unbound, human plasma turned out to be 1; the fraction unbound, rat plasma was found to be 0.727; the intrinsic clearance, human liver microsomes was 9.21 mL/min/kg; the intrinsic clearance, rat liver microsomes was determined as 331 mL/min/kg.

Turning to `COc1cc([C@H](CC(=O)O)c2ccc(C)c(CN3C[C@@H](C)Oc4ccccc4S3(=O)=O)c2)cc2nnn(C)c12`, the MDR1-MDCK efflux ratio was 99.5.

For the molecule `Cn1cc(C(=O)N2CCC(c3cc(C(F)(F)F)c4c(n3)CCNC4=O)CC2)ccc1=O`, the MDR1-MDCK efflux ratio was 0.752; the intrinsic clearance, human liver microsomes is not above 4.74 mL/min/kg; the intrinsic clearance, rat liver microsomes is not above 10.7 mL/min/kg; the aqueous solubility was 53 µg/mL (≈ 122 µM).

The molecule `Cc1ccc(C(=O)N(C)Cc2ccccn2)c(O)c1` showed an intrinsic clearance, human liver microsomes not above 4.74 mL/min/kg and an intrinsic clearance, rat liver microsomes of 479 mL/min/kg.

Molecule `N=c1ccn2c(n1)O[C@@H]1[C@@H](O)[C@@H](CO)O[C@H]12` displayed an intrinsic clearance, human liver microsomes not above 4.74 mL/min/kg and an intrinsic clearance, rat liver microsomes not above 10.7 mL/min/kg.

For `CC(=O)N1CCN(C(=O)CCc2ccc(-c3ccccc3)[nH]2)CC1`, the MDR1-MDCK efflux ratio was 8.83; the intrinsic clearance, human liver microsomes was not above 4.74 mL/min/kg; the intrinsic clearance, rat liver microsomes stood at 59.6 mL/min/kg; the aqueous solubility came to 61.8 µg/mL (≈ 190 µM).

As for `O=C(NC[C@@H]1CCN(c2ccccc2)C1)N1CCc2ccccc2C1`, the MDR1-MDCK efflux ratio was found to be 0.706; the intrinsic clearance, human liver microsomes turned out to be 170 mL/min/kg; the intrinsic clearance, rat liver microsomes came to 2160 mL/min/kg; the aqueous solubility was 11.9 µg/mL (≈ 35.5 µM).

With `COc1ccccc1NC(=O)CN1CCCN(c2nc(C)cs2)CC1`, the MDR1-MDCK efflux ratio came to 0.716; the intrinsic clearance, human liver microsomes was determined as 359 mL/min/kg; the intrinsic clearance, rat liver microsomes was determined as 1950 mL/min/kg; the aqueous solubility came to 55.5 µg/mL (≈ 154 µM).

Consider `CNC(=O)Cn1ccc2cc(OC)ccc21`, for which the MDR1-MDCK efflux ratio is 0.664; the intrinsic clearance, human liver microsomes was not above 4.74 mL/min/kg; the intrinsic clearance, rat liver microsomes stood at 99.9 mL/min/kg; the aqueous solubility worked out at 39.9 µg/mL (≈ 183 µM).

In the case of `CC(C)(C)c1cc(NS(=O)(=O)c2cccc(F)c2)cc(C(C)(C)C)c1`, the intrinsic clearance, human liver microsomes turned out to be 10 mL/min/kg and the intrinsic clearance, rat liver microsomes was determined as 306 mL/min/kg.

For `O=C(N[C@H](CO)CC1CCCCC1)c1cccc(-c2cnccn2)c1`, the intrinsic clearance, human liver microsomes came out at 198 mL/min/kg and the intrinsic clearance, rat liver microsomes was 4260 mL/min/kg.

Molecule `COc1cccc(CNC(=O)C2(C#N)CCOCC2)c1` gave an intrinsic clearance, human liver microsomes not above 4.74 mL/min/kg and an intrinsic clearance, rat liver microsomes of 75.9 mL/min/kg.

As to `Cc1cnc(NC(=O)Cc2coc3cc(C)c(C)cc23)s1`, the aqueous solubility was 0.32 µg/mL (≈ 1.07 µM).

In the case of `Cc1cc(Br)ccc1CN(C)C(=O)CO`, the MDR1-MDCK efflux ratio worked out at 0.75; the intrinsic clearance, human liver microsomes is not above 4.74 mL/min/kg; the intrinsic clearance, rat liver microsomes was 28.6 mL/min/kg.

As for `CC(C)(C)NC(=O)c1cncn1C1CCN(c2ccc(-c3nnc(C(F)(F)F)o3)cn2)CC1`, the MDR1-MDCK efflux ratio is 8.45; the intrinsic clearance, human liver microsomes was not above 4.74 mL/min/kg; the intrinsic clearance, rat liver microsomes amounted to 25.3 mL/min/kg; the aqueous solubility was found to be 61.1 µg/mL (≈ 132 µM).

As for `Cc1ncc(C)n2nc([C@@H]3C[C@H]3c3nc4c5cccnc5ccn4c3C)nc12`, the MDR1-MDCK efflux ratio came out at 1.4; the intrinsic clearance, human liver microsomes was determined as 16.1 mL/min/kg; the intrinsic clearance, rat liver microsomes is 82.1 mL/min/kg.

`O=C1NC(c2ccccc2)=N/C1=C/c1ccc2c(c1)OCO2` yielded an aqueous solubility of 0.31 µg/mL (≈ 1.06 µM).

On to `COCc1ccc(SCC(=O)NC2CCCC2)cc1`, for which the MDR1-MDCK efflux ratio stood at 0.714; the intrinsic clearance, human liver microsomes stood at 33.3 mL/min/kg; the intrinsic clearance, rat liver microsomes is 2550 mL/min/kg.

For the molecule `CCC(=O)Nc1ccc(F)c(NC(=O)N2CC=C(C)CC2)c1`, the MDR1-MDCK efflux ratio turned out to be 1.35; the intrinsic clearance, human liver microsomes is 9.2 mL/min/kg; the intrinsic clearance, rat liver microsomes was 68.6 mL/min/kg.

As for `Oc1cccc(/C=C/c2nc3ccccc3o2)c1`, the MDR1-MDCK efflux ratio turned out to be 0.192 and the aqueous solubility is 0.7 µg/mL (≈ 2.95 µM).

Turning to `NC(=O)C1CCN(C(=O)CCc2ccc(Cl)cc2)CC1`, the MDR1-MDCK efflux ratio is 6.24; the intrinsic clearance, human liver microsomes is not above 4.74 mL/min/kg; the intrinsic clearance, rat liver microsomes was 135 mL/min/kg; the aqueous solubility amounted to 47.8 µg/mL (≈ 162 µM).

Consider `Cc1cccc(OCC(=O)Nc2ccn(C)n2)c1`, for which the intrinsic clearance, human liver microsomes was determined as 21.1 mL/min/kg; the intrinsic clearance, rat liver microsomes is 479 mL/min/kg; the aqueous solubility came to 43.5 µg/mL (≈ 177 µM).

For the molecule `CCC(C)(C)N1CCN(C(=O)NCCc2cc(C)no2)CC1`, the MDR1-MDCK efflux ratio was determined as 7.18; the intrinsic clearance, human liver microsomes was not above 4.74 mL/min/kg; the intrinsic clearance, rat liver microsomes was 274 mL/min/kg.

Turning to `CCC(C)(C)N1CCN(C(=O)Nc2cnn(CC(C)C)c2C(F)F)CC1`, the MDR1-MDCK efflux ratio came to 4.08; the intrinsic clearance, human liver microsomes is not above 4.74 mL/min/kg; the intrinsic clearance, rat liver microsomes was found to be 159 mL/min/kg.

`Fc1ccc(CCNc2ncnc3ncccc23)cc1`: the MDR1-MDCK efflux ratio worked out at 2.35; the intrinsic clearance, human liver microsomes came out at 13.3 mL/min/kg; the intrinsic clearance, rat liver microsomes amounted to 80.5 mL/min/kg.

Take `Cc1cc(Nc2cc(N)ncn2)c(=O)n2c1C(=O)NC21CCCCC1`: the MDR1-MDCK efflux ratio is 25.5; the intrinsic clearance, human liver microsomes was not above 4.74 mL/min/kg; the intrinsic clearance, rat liver microsomes turned out to be 24.8 mL/min/kg.

In turn, `O=c1c(N2CCCC2)c(Cl)cnn1-c1ccccc1` showed an aqueous solubility of 17.1 µg/mL (≈ 62.1 µM).

For the molecule `Clc1cc2ncc(-n3ccnc3)nc2cc1Cl`, the MDR1-MDCK efflux ratio was found to be 0.485; the intrinsic clearance, human liver microsomes was found to be 16.8 mL/min/kg; the intrinsic clearance, rat liver microsomes is 134 mL/min/kg; the aqueous solubility was 2.96 µg/mL (≈ 11.2 µM).

With `Cc1ccc(-n2ccnc2-c2ccoc2)c2cccnc12`, the MDR1-MDCK efflux ratio is 0.946; the intrinsic clearance, human liver microsomes was found to be 55.1 mL/min/kg; the intrinsic clearance, rat liver microsomes was determined as 579 mL/min/kg; the aqueous solubility amounted to 19.9 µg/mL (≈ 72.1 µM).

`c1ccc(-c2noc(NCC3CCC3)n2)cc1`: the MDR1-MDCK efflux ratio is 0.605; the intrinsic clearance, human liver microsomes worked out at 119 mL/min/kg; the intrinsic clearance, rat liver microsomes came out at 741 mL/min/kg; the aqueous solubility is 34.7 µg/mL (≈ 151 µM).

`CNC(=O)CCc1nc(-c2ccccn2)no1`: the MDR1-MDCK efflux ratio worked out at 1.05; the intrinsic clearance, human liver microsomes was not above 4.74 mL/min/kg; the intrinsic clearance, rat liver microsomes was not above 10.7 mL/min/kg; the aqueous solubility was determined as 50.5 µg/mL (≈ 217 µM).

For the molecule `O=C(NCC1CC1)c1cncn1-c1ccc(F)cc1`, the MDR1-MDCK efflux ratio turned out to be 1.26; the intrinsic clearance, human liver microsomes is not above 4.74 mL/min/kg; the intrinsic clearance, rat liver microsomes is not above 10.7 mL/min/kg; the aqueous solubility is 52.2 µg/mL (≈ 201 µM).

As for `CCc1cc2c(N(C)CCO)ncnc2s1`, the MDR1-MDCK efflux ratio worked out at 0.676; the intrinsic clearance, human liver microsomes came to 73.6 mL/min/kg; the intrinsic clearance, rat liver microsomes is 139 mL/min/kg; the aqueous solubility came out at 40.9 µg/mL (≈ 172 µM).

Consider `Cc1nc(O)cc(C2CN(C3CCCCC3)C2)n1`, for which the MDR1-MDCK efflux ratio stood at 16.5; the intrinsic clearance, human liver microsomes was not above 4.74 mL/min/kg; the intrinsic clearance, rat liver microsomes is not above 10.7 mL/min/kg; the aqueous solubility worked out at 41.4 µg/mL (≈ 167 µM).

`COc1cc2c(cc1OC)CC(=O)N(CCCN(C)C[C@H]1Cc3cc(OC)c(OC)cc31)CC2`: the MDR1-MDCK efflux ratio was 73.8; the fraction unbound, human plasma came to 0.538; the fraction unbound, rat plasma is 0.412; the intrinsic clearance, human liver microsomes is 36.7 mL/min/kg. The molecule further came in with an intrinsic clearance, rat liver microsomes of 163 mL/min/kg and an aqueous solubility of 65.8 µg/mL (≈ 140 µM).

Consider `Cc1nnnn1CCCc1ccccc1`, for which the aqueous solubility stood at 5.67 µg/mL (≈ 28 µM).

Regarding `Cc1ncc(CCN2C(=O)NC3(CCCC3)C2=O)s1`, the MDR1-MDCK efflux ratio amounted to 91; the intrinsic clearance, human liver microsomes is not above 4.74 mL/min/kg; the intrinsic clearance, rat liver microsomes came out at 63.6 mL/min/kg.

With `O=c1oc2cccnc2n1Cc1ccccn1`, the MDR1-MDCK efflux ratio came out at 2.49; the intrinsic clearance, human liver microsomes is not above 4.74 mL/min/kg; the intrinsic clearance, rat liver microsomes was not above 10.7 mL/min/kg.

Consider `CNC(=O)c1cnc(/C=C/c2csc(-c3cccs3)n2)s1`, for which the MDR1-MDCK efflux ratio was determined as 0.521; the intrinsic clearance, human liver microsomes was determined as 34.4 mL/min/kg; the intrinsic clearance, rat liver microsomes worked out at 217 mL/min/kg; the aqueous solubility is 8.88 µg/mL (≈ 26.6 µM).

In the case of `CC(=O)N1CCN(C(=O)[C@H]2CCCCN2C(=O)OC(C)(C)C)CC1`, the MDR1-MDCK efflux ratio was 9.44; the intrinsic clearance, human liver microsomes was not above 4.74 mL/min/kg; the intrinsic clearance, rat liver microsomes was not above 10.7 mL/min/kg; the aqueous solubility is 113 µg/mL (≈ 333 µM).

As to `Cn1ncc2c(Oc3cccc(Oc4ccccn4)c3)ncnc21`, the MDR1-MDCK efflux ratio stood at 0.672; the intrinsic clearance, human liver microsomes is 10.1 mL/min/kg; the intrinsic clearance, rat liver microsomes worked out at 369 mL/min/kg; the aqueous solubility stood at 39.8 µg/mL (≈ 125 µM).

`Cn1cnnc1-c1cccc(NS(=O)(=O)c2ccc(N3CCCC3=O)cc2)c1`: the MDR1-MDCK efflux ratio is 3.7; the intrinsic clearance, human liver microsomes was not above 4.74 mL/min/kg; the intrinsic clearance, rat liver microsomes was 18 mL/min/kg; the aqueous solubility was determined as 56.6 µg/mL (≈ 142 µM).

For `N#Cc1cc(-c2n[nH]c(-c3ccncc3)n2)ccn1`, the MDR1-MDCK efflux ratio was determined as 4.87; the intrinsic clearance, human liver microsomes is 8.89 mL/min/kg; the intrinsic clearance, rat liver microsomes came to 129 mL/min/kg; the aqueous solubility was 14.3 µg/mL (≈ 57.5 µM).

For the molecule `Cn1ncc2c(Oc3cccc(C(C)(C)C)c3)ncnc21`, the MDR1-MDCK efflux ratio amounted to 0.48; the intrinsic clearance, human liver microsomes is 36.7 mL/min/kg; the intrinsic clearance, rat liver microsomes amounted to 465 mL/min/kg; the aqueous solubility amounted to 3.9 µg/mL (≈ 13.8 µM).
